From patent US7754709B2 (Solvay Pharmaceuticals BV, priority 2003, dated 2010)

What was measured:
Type in all cases: cell-based
[1] = biological target: T1, 17β-hydroxysteroid dehydrogenase type 2 (Homo sapiens, UniProt P37059); assay: Inhibition of 17β-HSD type 2 in MCF-7 cells stably expressing the isoenzyme (HPLC, tritium labeled estradiol); settings: 2 nM estradiol, read-out: % Inhibition of the 17β-HSD enzyme type 2 (HSD2); for inhibition at 1 µM: MCF7, 1 μM compound; for inhibition at 10 µM: MCF7, 10 μM compound
T1 construct: expressed in transfected cells; host or cells: MCF-7
T1 sequence (P37059 1-387): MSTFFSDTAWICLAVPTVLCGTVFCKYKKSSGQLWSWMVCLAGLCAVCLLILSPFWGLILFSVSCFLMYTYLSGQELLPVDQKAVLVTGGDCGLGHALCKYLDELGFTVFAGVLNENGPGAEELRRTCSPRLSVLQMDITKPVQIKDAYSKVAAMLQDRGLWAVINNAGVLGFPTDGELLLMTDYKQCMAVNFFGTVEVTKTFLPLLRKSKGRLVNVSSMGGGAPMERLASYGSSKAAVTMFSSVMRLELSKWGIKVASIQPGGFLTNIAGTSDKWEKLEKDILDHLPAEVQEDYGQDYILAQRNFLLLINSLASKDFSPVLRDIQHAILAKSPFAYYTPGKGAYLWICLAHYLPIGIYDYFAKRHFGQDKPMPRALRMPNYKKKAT
Excerpt: (§1) Biological Testing Materials and Methods 1. Inhibition of the 17β-hydroxysteroid dehydrogenase type 1, type 2 and type 3 enzyme
(§2) The compounds were screened in respect of 17β-HSD enzyme activity in vitro on established M CF-7 cell lines, each stably expressing one of the respective 17β-HSD isoenzymes. The interconversion of substrate by each isoenzyme and the 17β-HSD inhibiting activity of chemical compounds in these cell lines were detected by HPLC system.
(§3) Varying amounts of the test compounds were incubated in the growth medium of the 17β-HSD expressing cells together tritium labeled substrate (2 nM estrone for 17β-HSD type 1; 2 nM estradiol for 17β-HSD type 2; and 2 nM androstenedione for 17β-HSD type 3). The medium samples were removed after exact incubation time and the reaction is stopped by trichloroacetic acid (TCA). The samples were analyzed by HPLC-coupled flow scintillation analysis.
(§4) For each enzyme type, the HSD-inhibiting activity of an individual test compound was calculated by comparing the conversion of a control sample without any test compound (referred to as “Negative Control”) to the (reduced) conversion of the test sample containing the particular compound to be tested (referred to as “Test Sample”).
(§5) Two concentrations of each compound were used. The number of the compound refers to the numbers indicated in the Experimental Section.

[2] = biological target: T2, 17β-hydroxysteroid dehydrogenase type 3 (Homo sapiens, UniProt P37058); assay: Inhibition of 17β-HSD type 3 in MCF-7 cells stably expressing the isoenzyme (HPLC, tritium labeled androstenedione); settings: 2 nM androstenedione, read-out: % Inhibition of the 17β-HSD enzyme type 3 (HSD3); for inhibition at 1 µM: MCF7, 1 μM compound; for inhibition at 10 µM: MCF7, 10 μM compound
T2 construct: expressed in transfected cells; host or cells: MCF-7
T2 sequence (P37058 1-310): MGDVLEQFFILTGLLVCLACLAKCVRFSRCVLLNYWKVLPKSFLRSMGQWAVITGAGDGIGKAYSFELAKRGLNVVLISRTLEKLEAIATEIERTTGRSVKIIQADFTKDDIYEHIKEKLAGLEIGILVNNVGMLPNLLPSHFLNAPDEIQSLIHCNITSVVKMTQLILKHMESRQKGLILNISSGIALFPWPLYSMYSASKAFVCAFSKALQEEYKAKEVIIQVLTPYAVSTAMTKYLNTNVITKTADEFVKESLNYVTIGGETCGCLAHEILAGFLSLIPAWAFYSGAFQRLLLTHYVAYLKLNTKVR
Excerpt: as §1, §2, §3, §4, §5

[3] = biological target: T3, 17β-hydroxysteroid dehydrogenase type 1 (Homo sapiens, UniProt P14061); assay: Inhibition of 17β-HSD type 1 in MCF-7 cells stably expressing the isoenzyme (HPLC, tritium labeled estrone); settings: 2 nM estrone, read-out: % Inhibition of the 17β-HSD enzyme type 1 (HSD1); for inhibition at 1 µM: MCF7, 1 μM compound; for inhibition at 10 µM: MCF7, 10 μM compound
T3 construct: expressed in transfected cells; host or cells: MCF-7
T3 sequence (P14061 1-328): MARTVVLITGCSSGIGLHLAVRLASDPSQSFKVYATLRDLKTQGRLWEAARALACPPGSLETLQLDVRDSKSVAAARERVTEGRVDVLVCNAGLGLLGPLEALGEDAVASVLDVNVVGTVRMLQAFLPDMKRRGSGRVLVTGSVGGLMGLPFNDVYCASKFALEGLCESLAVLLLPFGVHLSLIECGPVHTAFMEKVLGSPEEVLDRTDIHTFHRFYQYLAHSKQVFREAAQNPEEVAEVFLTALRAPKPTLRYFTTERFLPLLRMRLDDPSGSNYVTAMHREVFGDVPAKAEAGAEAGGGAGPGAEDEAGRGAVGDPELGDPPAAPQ
Excerpt: as §1, §2, §3, §4, §5

inhibition at 1 µM [1] | inhibition at 10 µM [1] | inhibition at 1 µM [2] | inhibition at 10 µM [2] | inhibition at 1 µM [3] | inhibition at 10 µM [3] | SMILES
13.1% | 32.9% | 20% | 87.3% | 10.9% | 33.5% | CCOC(=O)C1CCc2nc3sc4c(c3c(=O)n2CC1)CCC(C=O)=C4Cl (stereo not drawn) [Compound 21, 4-Chloro-3-formyl-1,2,7,8,9,10,11,13-octahydro-13-oxo-[1]benzothieno[2′,3′: 4,5]pyrimido[1,2-a]azepine-9-carboxylic acid ethyl ester]
6.8% | 16.1% | 25.5% | 100% | 24.3% | 46.5% | CCCSC1=C(C=O)CCc2c1sc1nc3n(c(=O)c21)CCC(C(=O)OCC)CC3 (stereo not drawn) [Compound 22, 3-Formyl-1,2,7,8,9,10, 11,13-octahydro-13-oxo-4-(propylthio)-[1]benzothieno [2′,3′: 4,5]pyrimido[1,2-a]azepine-9-carboxylic acid ethyl ester]
9.7% | 17.7% | 19.5% | 89.5% | 17.4% | 64.7% | CCCSC1=C(C=O)CCc2c1sc1nc3n(c(=O)c21)CCC(C(=O)OC)CC3 (stereo not drawn) [Compound 23, 3-Formyl-1,2,7,8,9,10,11,13-octahydro-13-oxo-4-(propylthio)-[l]benzothieno[2′,3′: 4,5] pyrimido[1,2-a]azepine-9-carboxylic acid methyl ester]
3.1% | 19.3% | 18% | 59.6% | 24.9% | 32.3% | COC(=O)C1CCc2nc3sc4c(c3c(=O)n2CC1)CCC(C=O)=C4OC (stereo not drawn) [Compound 24, 3-Formyl-4-methoxy-1,2,7,8,9,10,11,13-octahydro-13-oxo-[1]benzothieno[2′,3′: 4,5]pyrimido [1,2-a]azepine-9-carboxylic acid methyl ester]
14% | 33.6% | -3.2% | 7.9% | 6.2% | 8.7% | O=c1c2c3c(sc2nc2ccccn12)CCCC3 [Compound 25, 1,2,3,4-Tetrahydro-12H-[1]benzothieno[2,3-d]pyrido[1,2-a]pyrimidin-12-one]
15.1% | 16.4% | -2.1% | 0.3% | 6.4% | -0.8% | O=C1CCCc2c1sc1nc3ccccn3c(=O)c21 [Compound 26, 2,3-Dihydro-12H-[l]benzothieno[2,3-d]pyrido[1,2-a]pyrimidin-4, 12(1H)-dione]
5.3% | 3.2% | 22.9% | 24.9% | 11.4% | 25.6% | CC1CCc2c(sc3nc4n(c(=O)c23)CCCCC4)C1 (stereo not drawn) [Compound 27, 3-Methyl-2,3,4,7,8,9, 10,11-octahydro-[1]benzothieno[2′,3′: 4,5]pyrimido-[1,2-a]azepin-13(1H)-one]
18.2% | 18.7% | 7.8% | 9.5% | 14.3% | 15.3% | CC1CCc2c(sc3nc4n(c(=O)c23)CCCCC4)C1=O (stereo not drawn) [Compound 28, 2,3,8,9,10,11-Hexahydro-3-methyl-[1]benzothieno[2′,3′: 4,5]pyrimido[1,2-a]azepin-4,13(1H,7H)-dione]
13.1% | 10.1% | 14.9% | 25.8% | -1% | 1.3% | CC(C)(C)C1CCc2c(sc3nc4n(c(=O)c23)CCCCC4)C1 (stereo not drawn) [Compound 29, 3-t-Butyl-2,3,4,7,8,9,10,11-octahydro-[1]benzothieno[2′,3′: 4,5]pyrimido-[1,2-a]azepin-13(1H)-one]
12.8% | 24.8% | 11.1% | 31.2% | 23.1% | 49% | O=CC1=C([S+]([O-])c2ccccc2)c2sc3nc4n(c(=O)c3c2CC1)CCCCC4 (stereo not drawn) [Compound 30, 1,2,7,8,9,10,11,13-Octahydro-13-oxo-4-(phenylsulfinyl)-[1]benzothieno[2′,3′: 4,5]-pyrimido-[1,2-a]azepine-3-carbaldehyde]
-0.2% | 9.3% | -6.4% | -3.9% | 2.1% | 6.8% | O=C(O)C1=C(Cl)c2sc3nc4n(c(=O)c3c2CC1)CCCCC4 [Compound 31, 4-Chloro-1,2,7,8,9, 10,11,13-octahydro-13-oxo-[1]benzothieno[2′,3′: 4,5]pyrimido[1,2-a]azepine-3-carboxylic acid]
15.8% | 27.7% | 16.2% | 23.4% | 4.8% | 22.4% | O=c1c2c3c(sc2nc2n1CCC(CO)CC2)CCCC3 (stereo not drawn) [Compound 35, 9-(Hydroxymethyl)-2,3,4,7,8,9,10,11-octahydro-[1]benzothieno[2′,3′: 4,5]pyrimido[1,2-a]azepin-13(1H)-one]
